In patent publication US11203770B2, “Methods for producing caprylic acid and/or caprylate” (Cornell University, priority 2016, dated 2021):

Experiments:
[1] = cited from earlier work
reactor microbiome = assay: inhibition of the chain-elongating reactor microbiome in the continuously fed upflow anaerobic filter; assay type: cell-based; settings: for high residual concentration that inhibits microbial activity: bioreactor broth, mildly acidic pH, n-caprylic acid as undissociated acid
Procedure: Experimental. Continuously fed bioreactor system. An upflow anaerobic filter was used with constant bioreactor broth recycling through an in-line membrane liquid-liquid extraction (i.e. pertraction) system (FIG. 8). The bioreactor was a vertically oriented cylinder, which was made of Plexiglas®, with an inner diameter of 6 cm. The total volume was 0.90 L, but […]1 packing material (Evolution Aqua, Wigan, United Kingdom) was added, resulting in a working volume of 0.70 L. […] A pH probe (Mettler 405-[…], Columbus, Ohio, USA) was mounted at the top of the bioreactor. Automated pH control of the bioreactor broth was maintained with a controller (Eutech Instruments alpha-pH800, Vernon Hills, Ill., USA) and a corresponding acid addition pump ([…] 913, Bradenton, Fla., USA). […] The effluent continuously exited the bioreactor via an overflow line connected to the top of the bioreactor. The exit of the overflow line was submerged within a secondary effluent reservoir. An inverted funnel was used to collect the biogas within the bioreactor and was connected to a flow meter (Ritter MGC-1, Bochum, Germany). In addition, a gas-sample septum and a bubbler were placed in the gas collection system. A sampling port for biomass samples was placed halfway up the vertically oriented bioreactor. Periods for the bioreactor study. This bioreactor was divided into two phases: I) a start-up phase with continuous feeding (with the product extraction system on or off); and II) a high n-caprylate productivity phase (with continuous feeding and the product extraction system on). Each phase was then divided into several distinct operating periods. From period to period, several operating parameters were varied, including the: organic loading rate (OLR); HRT; bioreactor pH; and operation with or without product extraction (Table 1). Each operating period was operated for at least five HRT periods, and average bioreactor loading rates and concentrations were reported. During Period 1 in Phase I (Days 0-15), pre-washed inoculum was added to the upflow anaerobic filter after which a continuous feeding strategy was initiated. […] The bioreactor was re-inoculated on Day 15 of Period 2 in Phase I (Days 15-54) with pre-washed inoculum, and then again on Day 54 of Period 3 of Phase I (Days 54-64) with non-washed inoculum. This last inoculation carried some carboxylates from the inoculation bioreactor. During Period 4 of Phase I (Days 64-80), the product extraction was turned off. […] In addition, we increased the OLR from 1.8 to 3.8 g COD/L-d (Table 2). Day 98 represented the start of Phase II (Period 6; Days 98-128), by switching on the product extraction system. Next, we increased the OLRs in a step-wise fashion during 4 out of the next 5 periods in Phase II. […]

methanogens = assay: toxicity to methanogens in small serum bottles; assay type: cell-based; settings: concentrations present in the bioreactor
Excerpt: Thus, at a pH of 7.0 we would have anticipated a methanogenic anaerobic digester rather than a chain elongating bioreactor. […] This explains why we can chain elongate at the higher pH levels without adding a methanogenic-inhibiting compound such as bromo-ethanesulfonate (BrES). […] This substantiates the claim that we can operate a chain elongating bioreactor sustainably at a pH level of 7.0.

SMILES	solubility limit of the undissociated acid [1] [mM]	high residual concentration that inhibits microbial activity (reactor microbiome) [mM]	toxic concentration, times lower than n-caproic acid (reactor microbiome; undissociated acids, toxicity to the community)	toxicity of undissociated acid to methanogens (methanogens)	residual ethanol concentration at which microbial inhibition was reached (reactor microbiome; Period 11, bioreactor broth) [g COD/L]
CCCCCC(=O)O [n-caproic acid]	93				
CCCCCCCC(=O)O [n-caprylic acid]		0.62	approximately 10 ×	toxic	
CCO [ethanol]		~300			~28
